# Assay results taken from ChEMBL document CHEMBL3112480, “γ-Alkylidene-γ-lactones and isobutylpyrrol-2(5H)-ones analogues to rubrolides as inhibitors of biofilm formation by gram-positive and gram-negative bacteria” (Bioorg Med Chem Lett, 2014).
# Experiments:
# [1] = tested on: Staphylococcus epidermidis; test: Antibacterial activity against Staphylococcus epidermidis ATCC 35547 assessed as effect on planktonic growth at 0.34 ug/ml after 20 hrs relative to control; assay type: functional
# Pseudomonas aeruginosa [2] = test: Antibacterial activity against Pseudomonas aeruginosa ATCC 27853 assessed as effect on planktonic growth at 87.5 ug/ml after 20 hrs relative to control; assay type: functional
# [3] = tested on: Staphylococcus epidermidis; test: Antibacterial activity against Staphylococcus epidermidis ATCC 35547 assessed as effect on planktonic growth at 1.37 ug/ml after 20 hrs relative to control; assay type: functional
# [4] = tested on: Staphylococcus epidermidis; test: Antibacterial activity against Staphylococcus epidermidis ATCC 35547 assessed as effect on planktonic growth at 10.9 ug/ml after 20 hrs relative to control; assay type: functional
# Streptococcus mutans [5] = test: Antibacterial activity against Streptococcus mutans ATCC 25175 assessed as effect on planktonic growth at 0.68 ug/ml after 20 hrs relative to control; assay type: functional
# Staphylococcus aureus [6] = test: Antibacterial activity against Staphylococcus aureus ATCC 25923 assessed as effect on planktonic growth at 43.8 ug/ml after 20 hrs relative to control; assay type: functional
# Pseudomonas aeruginosa [7] = test: Antibacterial activity against Pseudomonas aeruginosa ATCC 27853 assessed as effect on planktonic growth at 2.73 ug/ml after 20 hrs relative to control; assay type: functional
# [8] = tested on: Staphylococcus epidermidis; test: Antibacterial activity against Staphylococcus epidermidis ATCC 35547 assessed as effect on planktonic growth at 2.73 ug/ml after 20 hrs relative to control; assay type: functional
# Streptococcus mutans [9] = test: Antibacterial activity against Streptococcus mutans ATCC 25175 assessed as effect on planktonic growth at 2.73 ug/ml after 20 hrs relative to control; assay type: functional
# Streptococcus mutans [10] = test: Antibacterial activity against Streptococcus mutans ATCC 25175 assessed as effect on planktonic growth at 87.5 ug/ml after 20 hrs relative to control; assay type: functional
# Pseudomonas aeruginosa [11] = test: Antibacterial activity against Pseudomonas aeruginosa ATCC 27853 assessed as effect on planktonic growth at 1.37 ug/ml after 20 hrs relative to control; assay type: functional
# Streptococcus mutans [12] = test: Antibacterial activity against Streptococcus mutans ATCC 25175 assessed as effect on planktonic growth at 0.17 ug/ml after 20 hrs relative to control; assay type: functional
# [13] = tested on: Staphylococcus epidermidis; test: Antibacterial activity against Staphylococcus epidermidis ATCC 35547 assessed as effect on planktonic growth at 0.17 ug/ml after 20 hrs relative to control; assay type: functional
# Pseudomonas aeruginosa [14] = test: Antibacterial activity against Pseudomonas aeruginosa ATCC 27853 assessed as effect on planktonic growth at 0.34 ug/ml after 20 hrs relative to control; assay type: functional
# Streptococcus mutans [15] = test: Antibacterial activity against Streptococcus mutans ATCC 25175 assessed as effect on planktonic growth at 0.34 ug/ml after 20 hrs relative to control; assay type: functional
# Staphylococcus aureus [16] = test: Antibacterial activity against Staphylococcus aureus ATCC 25923 assessed as effect on planktonic growth at 5.5 ug/ml after 20 hrs relative to control; assay type: functional
# Pseudomonas aeruginosa [17] = test: Antibacterial activity against Pseudomonas aeruginosa ATCC 27853 assessed as inhibition of biofilm formation after 20 hrs by crystal-violet staining method; assay type: functional, organism-based
# Streptococcus mutans [18] = test: Antibacterial activity against Streptococcus mutans ATCC 25175 assessed as effect on planktonic growth at 43.8 ug/ml after 20 hrs relative to control; assay type: functional
# [19] = tested on: Staphylococcus epidermidis; test: Antibacterial activity against Staphylococcus epidermidis ATCC 35547 assessed as effect on planktonic growth at 5.5 ug/ml after 20 hrs relative to control; assay type: functional
# Streptococcus mutans [20] = test: Antibacterial activity against Streptococcus mutans ATCC 25175 assessed as effect on planktonic growth at 1.37 ug/ml after 20 hrs relative to control; assay type: functional
# Staphylococcus aureus [21] = test: Antibacterial activity against Staphylococcus aureus ATCC 25923 assessed as effect on planktonic growth at 10.9 ug/ml after 20 hrs relative to control; assay type: functional
# Staphylococcus aureus [22] = test: Antibacterial activity against Staphylococcus aureus ATCC 25923 assessed as effect on planktonic growth at 0.34 ug/ml after 20 hrs relative to control; assay type: functional
# [23] = tested on: Staphylococcus epidermidis; test: Antibacterial activity against Staphylococcus epidermidis ATCC 35547 assessed as effect on planktonic growth at 21.9 ug/ml after 20 hrs relative to control; assay type: functional
# Staphylococcus aureus [24] = test: Antibacterial activity against Staphylococcus aureus ATCC 25923 assessed as effect on planktonic growth at 2.73 ug/ml after 20 hrs relative to control; assay type: functional
# Pseudomonas aeruginosa [25] = test: Antibacterial activity against Pseudomonas aeruginosa ATCC 27853 assessed as effect on planktonic growth at 43.8 ug/ml after 20 hrs relative to control; assay type: functional
# Pseudomonas aeruginosa [26] = test: Antibacterial activity against Pseudomonas aeruginosa ATCC 27853 assessed as effect on planktonic growth at 10.9 ug/ml after 20 hrs relative to control; assay type: functional
# Staphylococcus aureus [27] = test: Antibacterial activity against Staphylococcus aureus ATCC 25923 assessed as effect on planktonic growth at 1.37 ug/ml after 20 hrs relative to control; assay type: functional
# [28] = tested on: Staphylococcus epidermidis; test: Antibacterial activity against Staphylococcus epidermidis ATCC 35547 assessed as effect on planktonic growth at 87.5 ug/ml after 20 hrs relative to control; assay type: functional
# Streptococcus mutans [29] = test: Antibacterial activity against Streptococcus mutans ATCC 25175 assessed as effect on planktonic growth at 5.5 ug/ml after 20 hrs relative to control; assay type: functional
# Pseudomonas aeruginosa [30] = test: Antibacterial activity against Pseudomonas aeruginosa ATCC 27853 assessed as effect on planktonic growth at 0.68 ug/ml after 20 hrs relative to control; assay type: functional
# Staphylococcus aureus [31] = test: Antibacterial activity against Staphylococcus aureus ATCC 25923 assessed as effect on planktonic growth at 21.9 ug/ml after 20 hrs relative to control; assay type: functional
# [32] = tested on: Staphylococcus epidermidis; test: Antibacterial activity against Staphylococcus epidermidis ATCC 35547 assessed as effect on planktonic growth at 43.8 ug/ml after 20 hrs relative to control; assay type: functional
# Pseudomonas aeruginosa [33] = test: Antibacterial activity against Pseudomonas aeruginosa ATCC 27853 assessed as effect on planktonic growth at 21.9 ug/ml after 20 hrs relative to control; assay type: functional
# Streptococcus mutans [34] = test: Antibacterial activity against Streptococcus mutans ATCC 25175 assessed as effect on planktonic growth at 10.9 ug/ml after 20 hrs relative to control; assay type: functional
# Staphylococcus aureus [35] = test: Antibacterial activity against Staphylococcus aureus ATCC 25923 assessed as effect on planktonic growth at 0.68 ug/ml after 20 hrs relative to control; assay type: functional
# [36] = tested on: Staphylococcus epidermidis; test: Antibacterial activity against Staphylococcus epidermidis ATCC 35547 assessed as effect on planktonic growth at 0.68 ug/ml after 20 hrs relative to control; assay type: functional
# Staphylococcus aureus [37] = test: Antibacterial activity against Staphylococcus aureus ATCC 25923 assessed as effect on planktonic growth at 0.17 ug/ml after 20 hrs relative to control; assay type: functional
# Pseudomonas aeruginosa [38] = test: Antibacterial activity against Pseudomonas aeruginosa ATCC 27853 assessed as effect on planktonic growth at 0.17 ug/ml after 20 hrs relative to control; assay type: functional
# Staphylococcus aureus [39] = test: Antibacterial activity against Staphylococcus aureus ATCC 25923 assessed as effect on planktonic growth at 87.5 ug/ml after 20 hrs relative to control; assay type: functional
# Streptococcus mutans [40] = test: Antibacterial activity against Streptococcus mutans ATCC 25175 assessed as effect on planktonic growth at 21.9 ug/ml after 20 hrs relative to control; assay type: functional
# [41] = tested on: Staphylococcus epidermidis; test: Antibacterial activity against Staphylococcus epidermidis ATCC 35547 assessed as inhibition of biofilm formation after 20 hrs by crystal-violet staining method; assay type: functional, organism-based; details: for IC50: ATCC 35547, 20 h
# Pseudomonas aeruginosa [42] = test: Antibacterial activity against Pseudomonas aeruginosa ATCC 27853 assessed as effect on planktonic growth at 5.5 ug/ml after 20 hrs relative to control; assay type: functional
smiles,measurement,setting,value
COc1ccc(Cl)cc1C1=C(Br)C(=O)N(CC(C)C)/C1=C\c1ccccc1Br,Activity,[1],-0.2%
same,Activity,Pseudomonas aeruginosa [2],10%
same,Activity,[3],-3.8%
same,Activity,[4],-3.2%
same,Activity,Streptococcus mutans [5],11%
same,Activity,Staphylococcus aureus [6],23.6%
same,Activity,Pseudomonas aeruginosa [7],-3.1%
same,Activity,[8],-6%
same,Activity,Streptococcus mutans [9],9.6%
same,Activity,Streptococcus mutans [10],23.4%
same,Activity,Pseudomonas aeruginosa [11],0.4%
same,Activity,Streptococcus mutans [12],12.4%
same,Activity,[13],-2.5%
same,Activity,Pseudomonas aeruginosa [14],-4%
same,Activity,Streptococcus mutans [15],10.4%
same,Activity,Staphylococcus aureus [16],2.5%
same,inhibition,Pseudomonas aeruginosa [17],Dose-dependent effect
same,IC50,"Pseudomonas aeruginosa [17]; ATCC 27853, 20 h",0.7 µg/mL
same,Activity,Streptococcus mutans [18],7.4%
same,Activity,[19],-5.7%
same,Activity,Streptococcus mutans [20],8.5%
same,Activity,Staphylococcus aureus [21],-1.2%
same,Activity,Staphylococcus aureus [22],17.2%
same,Activity,[23],2.1%
same,Activity,Staphylococcus aureus [24],2.7%
same,Activity,Pseudomonas aeruginosa [25],-6.6%
same,Activity,Pseudomonas aeruginosa [26],-11.5%
same,Activity,Staphylococcus aureus [27],12.4%
same,Activity,[28],6.9%
same,Activity,Streptococcus mutans [29],-1.6%
same,Activity,Pseudomonas aeruginosa [30],-0.1%
same,Activity,Staphylococcus aureus [31],7.5%
same,Activity,[32],13.5%
same,Activity,Pseudomonas aeruginosa [33],-9.6%
same,Activity,Streptococcus mutans [34],-3.3%
same,Activity,Staphylococcus aureus [35],12.2%
same,Activity,[36],-5.2%
same,Activity,Staphylococcus aureus [37],11.2%
same,Activity,Pseudomonas aeruginosa [38],-2.5%
same,Activity,Staphylococcus aureus [39],48%
same,Activity,Streptococcus mutans [40],10.4%
same,inhibition,[41],Dose-dependent effect
same,IC50,[41],> 87.5 µg/mL
same,Activity,Pseudomonas aeruginosa [42],-5.5%
COc1ccc(Br)cc1C1=C(Br)C(=O)N(CC(C)C)C1(O)Cc1cccc(Cl)c1 (configuration not stated),Activity,[1],34.1%
same,Activity,Pseudomonas aeruginosa [2],3.3%
same,Activity,[3],22.8%
same,Activity,[4],25.8%
same,Activity,Streptococcus mutans [5],10.3%
same,Activity,Staphylococcus aureus [6],30.3%
same,Activity,Pseudomonas aeruginosa [7],0.1%
same,Activity,[8],20.9%
same,Activity,Streptococcus mutans [9],7%
same,Activity,Streptococcus mutans [10],26.1%
same,Activity,Pseudomonas aeruginosa [11],-6.6%
same,Activity,Streptococcus mutans [12],1.1%
same,Activity,[13],17.5%
same,Activity,Pseudomonas aeruginosa [14],-5.4%
same,Activity,Streptococcus mutans [15],5.5%
same,Activity,Staphylococcus aureus [16],16.6%
same,inhibition,Pseudomonas aeruginosa [17],Dose-dependent effect
same,Activity,Streptococcus mutans [18],16.9%
same,Activity,[19],24.3%
same,Activity,Streptococcus mutans [20],12.1%
same,Activity,Staphylococcus aureus [21],4.2%
same,Activity,Staphylococcus aureus [22],6.1%
same,Activity,[23],30.2%
same,Activity,Staphylococcus aureus [24],0.6%
same,Activity,Pseudomonas aeruginosa [25],4.3%
same,Activity,Pseudomonas aeruginosa [26],3.2%
same,Activity,Staphylococcus aureus [27],-2%
same,Activity,[28],38.2%
same,Activity,Streptococcus mutans [29],9.6%
same,Activity,Pseudomonas aeruginosa [30],-9%
same,Activity,Staphylococcus aureus [31],23.8%
same,Activity,[32],35.9%
same,Activity,Pseudomonas aeruginosa [33],1.4%
same,Activity,Streptococcus mutans [34],6.6%
same,Activity,Staphylococcus aureus [35],3.1%
same,Activity,[36],23.2%
same,Activity,Staphylococcus aureus [37],-4.6%
same,Activity,Pseudomonas aeruginosa [38],-7.3%
same,Activity,Staphylococcus aureus [39],35.1%
same,Activity,Streptococcus mutans [40],15.4%
same,inhibition,[41],Dose-dependent effect
same,IC50,[41],> 87.5 µg/mL
same,Activity,Pseudomonas aeruginosa [42],-3.1%
